# Assay results as given in patent US20090137664A1, “SAURURUS CERNUUS COMPOUNDS THAT INHIBIT CELLULAR RESPONSES TO HYPOXIA” (priority 2003, published 2009).
# Tests used:
# SK-MEL-5 = experiment: NCI in vitro cell line screen (SRB), Melanoma SK-MEL-5; assay type: cell-based
# Protocol: (§1) For exemplary purposes, an embodiment of the present invention was tested for activity with respect to certain cancer cell lines. The following Tables show results from in vitro 60-cell line antitumor testing from the US National Cancer Institute Developmental Therapeutics Program (NCI-DTP) on compound 2. The testing was in connection with the NCI's In Vitro Cell Line Screening Project (IVCLSP). Detailed information regarding the experiments and their interpretation is available from the NCI.
# MCF7 = experiment: NCI in vitro cell line screen (SRB), Breast Cancer MCF7; assay type: cell-based
# Protocol: as §1
# HOP-62 = experiment: NCI in vitro cell line screen (SRB), Non-Small Cell Lung Cancer HOP-62; assay type: cell-based
# Protocol: as §1
# ACHN = experiment: NCI in vitro cell line screen (SRB), Renal Cancer ACHN; assay type: cell-based
# Protocol: as §1
# OVCAR-5 = experiment: NCI in vitro cell line screen (SRB), Ovarian Cancer OVCAR-5; assay type: cell-based
# Protocol: as §1
# RXF 393 = experiment: NCI in vitro cell line screen (SRB), Renal Cancer RXF 393; assay type: cell-based
# Protocol: as §1
# DU-145 = experiment: NCI in vitro cell line screen (SRB), Prostate Cancer DU-145; assay type: cell-based
# Protocol: as §1
# A498 = experiment: NCI in vitro cell line screen (SRB), Renal Cancer A498; assay type: cell-based
# Protocol: as §1
# secreted VEGF protein = experiment: induction of secreted VEGF protein by 1,10-phenanthroline in T47D cells (ELISA); assay type: cell-based, human; conditions: T47D, 1,10-phenanthroline 10 μM, 16 hr
# Protocol: Cell plating and compound treatment is similar to those described earlier for hypoxic conditions. […] At the end of the incubation, the concentration of secreted VEGF protein in the conditioned media is determined by ELISA and the data normalized by the number of viable cells.
# HOP-92 = experiment: NCI in vitro cell line screen (SRB), Non-Small Cell Lung Cancer HOP-92; assay type: cell-based
# Protocol: as §1
# IGROV1 = experiment: NCI in vitro cell line screen (SRB), Ovarian Cancer IGROV1; assay type: cell-based
# Protocol: as §1
# [1] = Homo sapiens, read-out: LC50 (the source's name)
smiles,measurement,setting,value
"COc1ccc([C@@H](O)[C@@H](C)Oc2ccc([C@H]3O[C@H](c4ccc(O[C@H](C)[C@H](O)c5ccc6c(c5)OCO6)c(OC)c4)[C@H](C)[C@H]3C)cc2OC)cc1OC [Compound 2, manassantin B]",TGI,SK-MEL-5,1.85E−6 Molar
same,GI50,SK-MEL-5; Homo sapiens,< 0.01 µM
same,CC50,SK-MEL-5; [1],9.04 µM
same,Mean Optical Densities,SK-MEL-5; Log10 Concentration −4.0 Molar,0.097
same,Percent Growth,SK-MEL-5; Log10 Concentration −4.0 Molar,−79%
same,Mean Optical Densities,SK-MEL-5; Log10 Concentration −5.0 Molar,0.222
same,Percent Growth,SK-MEL-5; Log10 Concentration −5.0 Molar,−53%
same,Mean Optical Densities,SK-MEL-5; Log10 Concentration −6.0 Molar,0.771
same,Percent Growth,SK-MEL-5; Log10 Concentration −6.0 Molar,19%
same,Mean Optical Densities,SK-MEL-5; Log10 Concentration −7.0 Molar,1.053
same,Percent Growth,SK-MEL-5; Log10 Concentration −7.0 Molar,38%
same,Mean Optical Densities,SK-MEL-5; Log10 Concentration −8.0 Molar,0.980
same,Percent Growth,SK-MEL-5; Log10 Concentration −8.0 Molar,33%
same,TGI,MCF7,9.51E−6 Molar
same,GI50,MCF7; Homo sapiens,0.36 µM
same,CC50,MCF7; [1],> 100 µM
same,Mean Optical Densities,MCF7; Log10 Concentration −4.0 Molar,0.191
same,Percent Growth,MCF7; Log10 Concentration −4.0 Molar,−40%
same,Mean Optical Densities,MCF7; Log10 Concentration −5.0 Molar,0.316
same,Percent Growth,MCF7; Log10 Concentration −5.0 Molar,−1%
same,Mean Optical Densities,MCF7; Log10 Concentration −6.0 Molar,0.758
same,Percent Growth,MCF7; Log10 Concentration −6.0 Molar,42%
same,Mean Optical Densities,MCF7; Log10 Concentration −7.0 Molar,0.937
same,Percent Growth,MCF7; Log10 Concentration −7.0 Molar,60%
same,Mean Optical Densities,MCF7; Log10 Concentration −8.0 Molar,0.959
same,Percent Growth,MCF7; Log10 Concentration −8.0 Molar,62%
same,TGI,HOP-62,>1.00E−4 Molar
same,GI50,HOP-62; Homo sapiens,57.3 µM
same,CC50,HOP-62; [1],> 100 µM
same,Mean Optical Densities,HOP-62; Log10 Concentration −4.0 Molar,0.739
same,Percent Growth,HOP-62; Log10 Concentration −4.0 Molar,44%
same,Mean Optical Densities,HOP-62; Log10 Concentration −5.0 Molar,0.893
same,Percent Growth,HOP-62; Log10 Concentration −5.0 Molar,68%
same,Mean Optical Densities,HOP-62; Log10 Concentration −6.0 Molar,0.971
same,Percent Growth,HOP-62; Log10 Concentration −6.0 Molar,81%
same,Mean Optical Densities,HOP-62; Log10 Concentration −7.0 Molar,0.982
same,Percent Growth,HOP-62; Log10 Concentration −7.0 Molar,82%
same,Mean Optical Densities,HOP-62; Log10 Concentration −8.0 Molar,0.924
same,Percent Growth,HOP-62; Log10 Concentration −8.0 Molar,73%
same,TGI,ACHN,5.02E−5 Molar
same,GI50,ACHN; Homo sapiens,1.82 µM
same,CC50,ACHN; [1],> 100 µM
same,Mean Optical Densities,ACHN; Log10 Concentration −4.0 Molar,0.297
same,Percent Growth,ACHN; Log10 Concentration −4.0 Molar,−5%
same,Mean Optical Densities,ACHN; Log10 Concentration −5.0 Molar,0.351
same,Percent Growth,ACHN; Log10 Concentration −5.0 Molar,11%
same,Mean Optical Densities,ACHN; Log10 Concentration −6.0 Molar,0.554
same,Percent Growth,ACHN; Log10 Concentration −6.0 Molar,64%
same,Mean Optical Densities,ACHN; Log10 Concentration −7.0 Molar,0.644
same,Percent Growth,ACHN; Log10 Concentration −7.0 Molar,88%
same,Mean Optical Densities,ACHN; Log10 Concentration −8.0 Molar,0.590
same,Percent Growth,ACHN; Log10 Concentration −8.0 Molar,73%
same,TGI,OVCAR-5,>1.00E−4 Molar
same,CC50,OVCAR-5; [1],> 100 µM
same,Mean Optical Densities,OVCAR-5; Log10 Concentration −4.0 Molar,0.713
same,Percent Growth,OVCAR-5; Log10 Concentration −4.0 Molar,11%
same,Mean Optical Densities,OVCAR-5; Log10 Concentration −5.0 Molar,0.752
same,Percent Growth,OVCAR-5; Log10 Concentration −5.0 Molar,26%
same,Mean Optical Densities,OVCAR-5; Log10 Concentration −6.0 Molar,0.862
same,Percent Growth,OVCAR-5; Log10 Concentration −6.0 Molar,68%
same,Mean Optical Densities,OVCAR-5; Log10 Concentration −7.0 Molar,0.853
same,Percent Growth,OVCAR-5; Log10 Concentration −7.0 Molar,65%
same,Mean Optical Densities,OVCAR-5; Log10 Concentration −8.0 Molar,0.696
same,Percent Growth,OVCAR-5; Log10 Concentration −8.0 Molar,4%
same,TGI,RXF 393,>1.00E−4 Molar
same,GI50,RXF 393; Homo sapiens,> 100 µM
same,CC50,RXF 393; [1],> 100 µM
same,Mean Optical Densities,RXF 393; Log10 Concentration −4.0 Molar,0.930
same,Percent Growth,RXF 393; Log10 Concentration −4.0 Molar,53%
same,Mean Optical Densities,RXF 393; Log10 Concentration −5.0 Molar,0.993
same,Percent Growth,RXF 393; Log10 Concentration −5.0 Molar,62%
same,Mean Optical Densities,RXF 393; Log10 Concentration −6.0 Molar,1.170
same,Percent Growth,RXF 393; Log10 Concentration −6.0 Molar,85%
same,Mean Optical Densities,RXF 393; Log10 Concentration −7.0 Molar,1.267
same,Percent Growth,RXF 393; Log10 Concentration −7.0 Molar,98%
same,Mean Optical Densities,RXF 393; Log10 Concentration −8.0 Molar,1.226
same,Percent Growth,RXF 393; Log10 Concentration −8.0 Molar,92%
same,TGI,DU-145,>1.00E−4 Molar
same,GI50,DU-145; Homo sapiens,10.6 µM
same,CC50,DU-145; [1],> 100 µM
same,Mean Optical Densities,DU-145; Log10 Concentration −4.0 Molar,0.487
same,Percent Growth,DU-145; Log10 Concentration −4.0 Molar,28%
same,Mean Optical Densities,DU-145; Log10 Concentration −5.0 Molar,0.623
same,Percent Growth,DU-145; Log10 Concentration −5.0 Molar,51%
same,Mean Optical Densities,DU-145; Log10 Concentration −6.0 Molar,0.800
same,Percent Growth,DU-145; Log10 Concentration −6.0 Molar,81%
same,Mean Optical Densities,DU-145; Log10 Concentration −7.0 Molar,0.831
same,Percent Growth,DU-145; Log10 Concentration −7.0 Molar,86%
same,Mean Optical Densities,DU-145; Log10 Concentration −8.0 Molar,0.817
same,Percent Growth,DU-145; Log10 Concentration −8.0 Molar,83%
same,TGI,A498,>1.00E−4 Molar
same,GI50,A498; Homo sapiens,13.2 µM
same,CC50,A498; [1],> 100 µM
same,Mean Optical Densities,A498; Log10 Concentration −4.0 Molar,1.223
same,Percent Growth,A498; Log10 Concentration −4.0 Molar,14%
same,Mean Optical Densities,A498; Log10 Concentration −5.0 Molar,1.343
same,Percent Growth,A498; Log10 Concentration −5.0 Molar,55%
same,Mean Optical Densities,A498; Log10 Concentration −6.0 Molar,1.419
same,Percent Growth,A498; Log10 Concentration −6.0 Molar,80%
same,Mean Optical Densities,A498; Log10 Concentration −7.0 Molar,1.433
same,Percent Growth,A498; Log10 Concentration −7.0 Molar,85%
same,Mean Optical Densities,A498; Log10 Concentration −8.0 Molar,1.414
same,Percent Growth,A498; Log10 Concentration −8.0 Molar,79%
same,"effect on the induction of secreted VEGF protein by 1,10-phenanthroline",secreted VEGF protein,does not effect
same,TGI,HOP-92,2.45E−5 Molar
same,GI50,HOP-92; Homo sapiens,1.98 µM
same,LC50,HOP-92; Homo sapiens,> 100 µM
same,Mean Optical Densities,HOP-92; Log10 Concentration −4.0 Molar,0.490
same,Percent Growth,HOP-92; Log10 Concentration −4.0 Molar,−30%
same,Mean Optical Densities,HOP-92; Log10 Concentration −5.0 Molar,0.744
same,Percent Growth,HOP-92; Log10 Concentration −5.0 Molar,19%
same,Mean Optical Densities,HOP-92; Log10 Concentration −6.0 Molar,0.846
same,Percent Growth,HOP-92; Log10 Concentration −6.0 Molar,63%
same,Mean Optical Densities,HOP-92; Log10 Concentration −7.0 Molar,0.947
same,Percent Growth,HOP-92; Log10 Concentration −7.0 Molar,107%
same,Mean Optical Densities,HOP-92; Log10 Concentration −8.0 Molar,0.971
same,Percent Growth,HOP-92; Log10 Concentration −8.0 Molar,117%
same,TGI,IGROV1,>1.00E−4 Molar
same,GI50,"IGROV1; Homo sapiens, IGROV-1",14 µM
same,CC50,"IGROV1; Homo sapiens, IGROV-1, read-out: LC50 (the source's name)",> 100 µM
same,Mean Optical Densities,IGROV1; Log10 Concentration −4.0 Molar,0.336
same,Percent Growth,IGROV1; Log10 Concentration −4.0 Molar,13%
same,Mean Optical Densities,IGROV1; Log10 Concentration −5.0 Molar,0.500
same,Percent Growth,IGROV1; Log10 Concentration −5.0 Molar,56%
same,Mean Optical Densities,IGROV1; Log10 Concentration −6.0 Molar,0.674
same,Percent Growth,IGROV1; Log10 Concentration −6.0 Molar,102%
same,Mean Optical Densities,IGROV1; Log10 Concentration −7.0 Molar,0.674
same,Percent Growth,IGROV1; Log10 Concentration −7.0 Molar,102%
same,Mean Optical Densities,IGROV1; Log10 Concentration −8.0 Molar,0.721
same,Percent Growth,IGROV1; Log10 Concentration −8.0 Molar,114%
